Consider two compounds from US10632169B2, “Methods of using GM604 in modulating ALS disease biomarkers leading to prognosis and therapeutic treatment for ALS disease” (Genervon Biopharmaceuticals, LLC, priority 2015, dated 2020).

Residues, ends and D or L forms follow the SMILES beside them. Where only a bound is given, the exact number is not on record here.

The test system of data set [1] is anterior horn motor neurons isolated from rat lumbar spinal cord explants. The note with it: naturally occurring and recombinant MNTF1; U.S. Pat. No. 6,309,877; cited from earlier work.
For a further data set, the system named is surviving motor neurons. The note with it: in vivo administration; blocked by anti-MNTF1 monoclonal antibody; cited from earlier work.
Data set [2] is described as follows: GALS-001 Phase 2A trial, safety and tolerability. It is filed as in vivo, human. On the procedure:
A total of twelve patients were enrolled in the ALS Phase 2A study. Six subjects enrolled at Site 1 and six subjects enrolled at Site 2. Dosing was by slow bolus intravenous administration, once a day for 3 times a week for 2 weeks. Eight patients were randomized to receive 320 mg GM604 per dose and four patients to receive placebo. Our inclusion/exclusion criteria required the ALS patients in the Phase 2A trial to be “definite” ALS sufferers according to El Escorial criteria (i.e., the disease progression must involve upper and lower motoneuron and the bulbar region) who had experienced disease onset within 24 months prior to the beginning of the trial. The goal is to enroll fast progressing patients. Our dosing regimen was delivered via intravenous bolus dosing three times a week (Monday, Wednesday, Friday) for two consecutive weeks, for a total of 6 doses. There was no dosing after the two weeks' treatment, and the patients were followed and evaluated for the next ten weeks. The clinical data for the ALSFRS-R, FVC, TUG, and the Grip Strength and HHD were measured at Baseline, Week 2, Week 6, and Week 12.
1. Safety and tolerability were evaluated based on the results of adverse events, vital signs, electrocardiography (ECG) measurements, physical and neurological examinations, safety laboratory monitoring, and hypersensitivity and injection site reactions.

Data set [3] is described as follows: GALS-C compassionate use, clinical observations. The settings on record: during the GALS-C trial. It is filed as in vivo, human. The source says: GALS Compassionate Use (GALS-C) A ALS patient was first diagnosed with the disease in Q1 2005 and by Q3 2008 was quadriplegic and on a ventilator. The FDA approved a compassionate-use application of the MNTF6mer known as GM604 for this patient (IND #120052) using a protocol that followed the Phase 2A trial. This program was thus dubbed GALS-C. GALS-C Study Design
8. Exploratory clinical outcome measures will include the rate of decline of the ALS Functional Rating Scale Revised (ALSFRS-R), Forced Vital Capacity (FVC), stabilization or improvement in any clonus or spasticity symptoms, speech, swallowing, drooling, lingual/oral muscle, improved time off vent (self-breathing) and any movement or increase movement of any muscle groups. To estimate the participant's rate of progression prior to treatment, an ALSFRS-R of 48 will be assumed at date of symptom onset. There will be 2 weeks of active treatment, followed by 10 weeks of assessment without active treatment.
This compassionate trial follows the similar protocol and same dosing regimen as in the Phase 2A ALS trial. […]
Since the compassionate patient was very advanced, the usual clinical evaluations such as ALS functional rating scale (ALSFRS), forced vital capacity (FVC), and muscle strength were not used. […] The initial CSF before dosing and the CSF sample after the 6th dose were collected and analyzed. […]

The conditions of data set [4]: shown in U.S. Pat. No. 8,673,852; cited from earlier work.

Regarding “MNTF1: motoneuronotrophic factor isolated from rat muscle tissues; recombinant MNTF1-F6 encodes a 33 amino acid sequence (SEQ ID NO:1) (LGTFWGDTLNCWMLSAFSRYARCLAEGHDGPTQ)”, in data set [1], the “Survival in vitro of anterior horn motor neurons” value is recorded as “selectively enhance the survival”. In addition, in the data set with surviving motor neurons, the “Percentage of surviving motor neurons vs untreated controls” value was “markedly higher percentage of surviving motor neurons”.

As to `C[C@H](NC(=O)[C@H](Cc1ccc(O)cc1)NC(=O)[C@H](CCCNC(=N)N)NC(=O)[C@H](CO)NC(=O)[C@@H](N)Cc1ccccc1)C(=O)N[C@@H](CCCNC(=N)N)C(=O)O` [GM604, FSRYAR] (H-FSRYAR-OH), in data set [2] (2 patients of 8), the “Headache, GM604-treated patients” value came out at 25%. In addition, the “Puncture site pain, GM604-treated patients” value in data set [2] (3 patients of 8) stood at 37.5%. Moreover, in data set [2] (4 patients of 8), the “Falls, GM604-treated patients” value amounted to 50%. For the same compound, the “Patients with at least 1 Treatment-emergent adverse event (TEAE)” value in data set [2] (GM604 treatment group, placebo 4 out of 4) is listed as 5 out of 8. In data set [2] (Visit 5, placebo 1 patient), the “Grade 1 hypersensitivity reactions” value amounted to 1 patient. The “Clinical laboratory tests, hematology, urinalysis, ECGs, vital signs, physical and neurological findings vs placebo” value in data set [2] (changes over time) was “no clinically meaningful differences”. In data set [2] (no GM604 patient above this value), the “QT or QTcB result” value was at most 450 ms. Besides, the “Rash, GM604-treated patients” value in data set [2] (of 8) is 2 patients. Also, in data set [2] (patient 0203, shortness of breath, judged unrelated to the investigational product), the “Serious adverse events (SAE)” value came out at 1. Further, the “Deaths or withdrawals due to adverse events” value in data set [2] (whole study) was “No deaths or withdrawals due to adverse events occurred”. For the same compound, the Adverse side effects result in data set [3] was “no adverse side effects were noted”. Further, the “Blood brain barrier penetration” value in data set [4] is “able to penetrate the blood brain barrier”.
